Test results published in patent US20240309007A1, “CRYSTALLINE FORMS OF 3-{4-[(2R)-2-AMINOPROPOXY]PHENYL}-N-[(1R)- 1-(3-FLUOROPHENYL) ETHYL]IMIDAZO[1,2-B]PYRIDAZIN-6-AMINE AND SALTS THEREOF” (ANHEART THERAPEUTICS (HANGZHOU) CO., LTD., priority 2021, published 2024).
Entries after “also recorded” stand apart in the source; their conditions may differ.

Columns and labels:
[1] = Stability under stress conditions (XRPD and HPLC purity); type: physicochemical
Method: A predetermined amount of the crystalline form A of Compound 1 adipate was stored under the following conditions: (1) open to air under 25° C./60% RH for one or two weeks, (2) open to air under 40° C./75% RH for one or two weeks, (3) open to air under 80° C. for one day, and (4) exposed to light for 10 days. Crystalline form and chemical impurity were checked by XRPD and HPLC, respectively.
In Table 5, Sample No. 1 was a crystalline form A starting material before any test; Samples Nos. 2 and 3 were subject to condition (1) described above; Samples Nos. 4 and 5 were subject to condition (2) described above; Samples No. 6 was subject to condition (3) described above; and Samples Nos. 7 and 8 were subject to condition (4) described above where Sample No. 7 was not covered and Sample No. 8 was completely covered by a tin foil as a comparison.

[2] = Dynamic Vapor Sorption (DVS), hygroscopicity; type: physicochemical
Method: Dynamic Vapor Sorption (DVS) was performed by using Intrinsic DVS (Surface Measurement Systems, UK). A sample was weighed in an amount of 20-30 mg and was placed in a sample chamber. The measurement was performed at DMDT mode when the temperature of the sample chamber was maintained at 25±1° C.

[3] = Exposure to light (1.2 million lux h), 10 days, completely covered by a tin foil (comparison)
[4] = Exposure to light (1.2 million lux h), 10 days, not covered
[5] = open to air, 25° C./60% RH, 1 week
[6] = open to air, 25° C./60% RH, 2 weeks
[7] = open to air, 40° C./75% RH, 1 week
[8] = open to air, 40° C./75% RH, 2 weeks
[9] = starting material before any test

crystalline form on storage (physical stability) [1]: remains unchanged
physical and chemical stability (in words) [1]: superior physical and chemical stability
purity on storage (chemical stability) [1]: essentially unchanged
Purity (%) [1, 3]: 99.81%
XRPD [1, 3]: Form A
Purity (%) [1, 4]: 99.79%
XRPD [1, 4]: Form A
Purity (%) [1, 5]: 99.81%
XRPD [1, 5]: Form A
Purity (%) [1, 6]: 99.79%
XRPD [1, 6]: Form A
Purity (%) [1, 7]: 99.84%
XRPD [1, 7]: Form A
Purity (%) [1, 8]: 99.81%
XRPD [1, 8]: Form A
Purity (%) ([1]; open to air, 80° C., 1 day): 99.68%
XRPD ([1]; open to air, 80° C., 1 day): Form A
Purity (%) [1, 9]: 99.86%
XRPD [1, 9]: Form A
crystalline form (XRPD) of the sample before and after the DVS test [2]: did not change
weight increase (DVS) ([2]; at 80% RH, 25±1° C.): 0.235%
SMILES: C[C@@H](N)COc1ccc(-c2cnc3ccc(N[C@H](C)c4cccc(F)c4)nn23)cc1 [crystalline form A of Compound 1 adipate, 3-{4-[(2R)-2-aminopropoxy]phenyl}-N-[(1R)-1-(3-fluorophenyl)ethyl]imidazo[1,2-b]pyridazin-6-amine]
hygroscopicity (in words) ([2]; from DVS weight increase at 80% RH): low hygroscopicity; also recorded: very low or nearly no hygroscopicity
